{"source": "patent US10479777B2", "about": "“Herbicidal azines” (BASF SE, priority 2013, dated 2019)", "type_in_all_cases": "in vivo", "key": {"Amaranthus retroflexus [1]": {"system": "Amaranthus retroflexus", "test": "greenhouse test, pre-emergence treatment", "settings": "scale from 0 to 100", "source_text": "(§1) The culture containers used were plastic flowerpots containing loamy sand with approximately 3.0% of humus as the substrate. The seeds of the test plants were sown separately for each species.\n(§2) For the pre-emergence treatment, the active ingredients, which had been suspended or emulsified in water, were applied directly after sowing by means of finely distributing nozzles. The containers were irrigated gently to promote germination and growth and subsequently covered with transparent plastic hoods until the plants had rooted. This cover caused uniform germination of the test plants, unless this had been impaired by the active ingredients. For the post-emergence treatment, the test plants were first grown to a height of 3 to 15 cm, depending on the plant habit, and only then treated with the active ingredients which had been suspended or emulsified in water. For this purpose, the test plants were either sown directly and grown in the same containers, or they were first grown separately as seedlings and transplanted into the test containers a few days prior to treatment.\n(§3) Depending on the species, the plants were kept at 10-25° C. or 20-35° C., respectively. The test period extended over 2 to 4 weeks. During this time, the plants were tended, and their response to the individual treatments was evaluated.\n(§4) Evaluation was carried out using a scale from 0 to 100. 100 means no emergence of the plants, or complete destruction of at least the aerial moieties, and 0 means no damage, or normal course of growth. A moderate herbicidal activity is given at values of at least 60, a good herbicidal activity is given at values of at least 70, and a very good herbicidal activity is given at values of at least 85.\n(§5) The plants used in the greenhouse experiments were of the following species: […]"}, "Apera spica-venti": {"system": "Apera spica-venti", "test": "greenhouse test, pre-emergence treatment", "settings": "scale from 0 to 100", "source_text": "as §1, §2, §3, §4, §5"}, "Amaranthus retroflexus [2]": {"system": "Amaranthus retroflexus", "test": "greenhouse test, post-emergence treatment", "settings": "scale from 0 to 100", "source_text": "as §1, §2, §3, §4, §5"}, "Setaria viridis [3]": {"system": "Setaria viridis", "test": "greenhouse test, post-emergence treatment", "settings": "scale from 0 to 100", "source_text": "as §1, §2, §3, §4, §5"}, "Abutilon theophrasti": {"system": "Abutilon theophrasti", "test": "greenhouse test, post-emergence treatment", "settings": "scale from 0 to 100", "source_text": "as §1, §2, §3, §4, §5"}, "Setaria viridis [4]": {"system": "Setaria viridis", "test": "greenhouse test, pre-emergence treatment", "settings": "scale from 0 to 100", "source_text": "as §1, §2, §3, §4, §5"}, "Polygonum convolvulus": {"system": "Polygonum convolvulus", "test": "greenhouse test, pre-emergence treatment", "settings": "62.5 g/ha, scale from 0 to 100", "source_text": "as §1, §2, §3, §4, §5"}, "Echinocloa crus-galli": {"system": "Echinocloa crus-galli", "test": "greenhouse test, pre-emergence treatment", "settings": "scale from 0 to 100", "source_text": "as §1, §2, §3, §4, §5"}, "Setaria faberi": {"system": "Setaria faberi", "test": "greenhouse test, post-emergence treatment", "settings": "500 g/ha, scale from 0 to 100", "source_text": "as §1, §2, §3, §4, §5"}, "Poa annua": {"system": "Poa annua", "test": "greenhouse test, pre-emergence treatment", "settings": "scale from 0 to 100", "source_text": "as §1, §2, §3, §4, §5"}, "Stellaria media": {"system": "Stellaria media", "test": "greenhouse test, pre-emergence treatment", "settings": "scale from 0 to 100", "source_text": "as §1, §2, §3, §4, §5"}}}
{"smiles": "Nc1nc(Nc2c(F)c(F)nc(F)c2F)nc(C(F)(F)F)n1", "note": "[Example 50]", "values": [{"measurement": "herbicidal activity", "setting": "Amaranthus retroflexus [1]; 500 g/ha", "result": "very good (a very good herbicidal activity is given at values of at least 85)"}, {"measurement": "herbicidal activity", "setting": "Apera spica-venti; 500 g/ha", "result": "good (a good herbicidal activity is given at values of at least 70)"}]}
{"smiles": "CC(C)(F)c1nc(N)nc(Nc2nc(F)c(F)c(OS(C)(=O)=O)c2F)n1", "note": "[Example 37]", "values": [{"measurement": "herbicidal activity", "setting": "Amaranthus retroflexus [1]; 250 g/ha", "result": "very good (a very good herbicidal activity is given at values of at least 85)"}, {"measurement": "herbicidal activity", "setting": "Apera spica-venti; 250 g/ha", "result": "good (a good herbicidal activity is given at values of at least 70)"}]}
{"smiles": "Cc1cccnc1Nc1nc(N)nc(C(F)(F)F)n1", "note": "[Example 34]", "values": [{"measurement": "herbicidal activity", "setting": "Amaranthus retroflexus [2]; 2000 g/ha", "result": "very good (a very good herbicidal activity is given at values of at least 85)"}, {"measurement": "herbicidal activity", "setting": "Setaria viridis [3]; 2000 g/ha", "result": "very good (a very good herbicidal activity is given at values of at least 85)"}, {"measurement": "herbicidal activity", "setting": "Abutilon theophrasti; 2000 g/ha", "result": "very good (a very good herbicidal activity is given at values of at least 85)"}]}
{"smiles": "Nc1nc(Nc2c(F)c(F)nc(F)c2F)nc(C2(F)CCC2)n1", "note": "[Example 70]", "values": [{"measurement": "herbicidal activity", "setting": "Amaranthus retroflexus [1]; 1000 g/ha", "result": "very good (a very good herbicidal activity is given at values of at least 85)"}, {"measurement": "herbicidal activity", "setting": "Apera spica-venti; 1000 g/ha", "result": "good (a good herbicidal activity is given at values of at least 70)"}]}
{"smiles": "CC(C)(F)c1nc(N)nc(Nc2c(F)c(F)nc(F)c2F)n1", "note": "[Example 1, 6-(1-Fluoro-1-methyl-ethyl)-N4-(2,3,5,6-tetrafluoro-4-pyridyl)-1,3,5-triazine-2,4-diamine]", "values": [{"measurement": "herbicidal activity", "setting": "Setaria viridis [4]; 62.5 g/ha", "result": "very good (a very good herbicidal activity is given at values of at least 85)"}, {"measurement": "herbicidal activity", "setting": "Polygonum convolvulus", "result": "very good (a very good herbicidal activity is given at values of at least 85)"}, {"measurement": "herbicidal activity", "setting": "Echinocloa crus-galli; 62.5 g/ha", "result": "very good (a very good herbicidal activity is given at values of at least 85)"}]}
{"smiles": "CC(C)Oc1cccnc1Nc1nc(N)nc(C(F)(F)F)n1", "note": "[Example 36]", "values": [{"measurement": "herbicidal activity", "setting": "Setaria viridis [3]; 1104 g/ha", "result": "very good (a very good herbicidal activity is given at values of at least 85)"}]}
{"smiles": "CC(c1nc(N)nc(Nc2c(F)c(F)nc(F)c2F)n1)C1CC1", "note": "(stereo not shown) [Example 60]", "values": [{"measurement": "herbicidal activity", "setting": "Amaranthus retroflexus [2]; 500 g/ha", "result": "very good (a very good herbicidal activity is given at values of at least 85)"}, {"measurement": "herbicidal activity", "setting": "Abutilon theophrasti; 500 g/ha", "result": "very good (a very good herbicidal activity is given at values of at least 85)"}, {"measurement": "herbicidal activity", "setting": "Setaria faberi", "result": "very good (a very good herbicidal activity is given at values of at least 85)"}]}
{"smiles": "CC(C)(F)c1nc(N)nc(Nc2nc(F)c(F)c(Cl)c2F)n1", "note": "[Example 5]", "values": [{"measurement": "herbicidal activity", "setting": "Amaranthus retroflexus [1]; 125 g/ha", "result": "very good (a very good herbicidal activity is given at values of at least 85)"}, {"measurement": "herbicidal activity", "setting": "Setaria viridis [4]; 125 g/ha", "result": "very good (a very good herbicidal activity is given at values of at least 85)"}, {"measurement": "herbicidal activity", "setting": "Echinocloa crus-galli; 125 g/ha", "result": "very good (a very good herbicidal activity is given at values of at least 85)"}]}
{"smiles": "CC(C)(Cl)c1nc(N)nc(Nc2c(F)c(F)nc(F)c2F)n1", "note": "[Example 56]", "values": [{"measurement": "herbicidal activity", "setting": "Poa annua; 125 g/ha", "result": "very good (a very good herbicidal activity is given at values of at least 85)"}, {"measurement": "herbicidal activity", "setting": "Stellaria media; 125 g/ha", "result": "very good (a very good herbicidal activity is given at values of at least 85)"}]}
{"smiles": "Nc1nc(Nc2c(F)c(F)nc(F)c2F)nc(C2CCCCC2)n1", "note": "[Example 59]", "values": [{"measurement": "herbicidal activity", "setting": "Poa annua; 250 g/ha", "result": "very good (a very good herbicidal activity is given at values of at least 85)"}, {"measurement": "herbicidal activity", "setting": "Stellaria media; 250 g/ha", "result": "very good (a very good herbicidal activity is given at values of at least 85)"}]}
{"smiles": "CC(C)(F)c1nc(N)nc(Nc2c(F)cncc2F)n1", "note": "[Example 54]", "values": [{"measurement": "herbicidal activity", "setting": "Amaranthus retroflexus [1]; 62 g/ha", "result": "very good (a very good herbicidal activity is given at values of at least 85)"}, {"measurement": "herbicidal activity", "setting": "Apera spica-venti; 62 g/ha", "result": "very good (a very good herbicidal activity is given at values of at least 85)"}]}
